From patent US12156871B2, “Substituted azacycles as muscarinic M1 receptor positive allosteric modulators” (SUVEN LIFE SCIENCES LIMITED, priority 2017, dated 2024)
One block for each molecule: values may come before it.

Columns and labels:
[1] = Protein binding assay (HT dialysis), dog plasma; assay type: in vitro ADME; conditions: pH 7.4, Mean ± SEM, n = 3, read-out: Fu Plasma (converted)
Experimental: (§1) Unbound fractions of test compounds in plasma, brain homogenate and liver microsomes were determined using high-throughput dialysis (HT dialysis). Briefly, dialysis membranes were soaked in deionized water for 20 minutes and then in deionized water with 30% ethanol for 15 minutes and finally in phosphate buffer until use. Membranes were rinsed in phosphate buffer before assembling. The membranes were layered between teflon bars of dialysis assembly. Stock solutions of test compound/comparative compound were prepared at 10 mM in DMSO, diluted to 1 mM in acetonitrile and further diluted to 100 μM in mixture of water and acetonitrile (1:1 v/v). Human plasma (pool of 3) was prepared from human blood (3 donors) by centrifuging at 4000 rpm for 10 min at 4° C. Rat and dog blood were obtained on the day of the study and centrifuged to obtain plasma. Rat brains were isolated, cleaned and homogenized with 2 volumes of buffer (3 fold dilution). Liver microsomes were prepared at 0.5 mg/mL in phosphate buffer (100 mM, pH 7.4). The dialysate chambers were loaded with 150 μL of 100 mM phosphate buffer (pH 7.4) in triplicates. The matrix chambers were loaded with 150 μL of the plasma or brain homogenate or microsomal suspension spiked with test compound/comparative compound at a final concentration of 1 μM. 50 μL of the sample was removed from both the chambers at 0 h. The plate was sealed and incubated at 37° C. for 6 h at 100 rpm. After 6 h, 50 μL of the sample was removed from both the chambers. Equal volumes of buffer or human plasma/microsomal suspension were added to the plasma/microsomal and buffer samples respectively to create identical sample matrices for analysis. The samples were precipitated with 150 μL of acetonitrile containing fluoxetine as an internal standard. All the samples were centrifuged at 10000 rpm for 10 minutes at 4° C.

[2] = Protein binding assay (HT dialysis), rat plasma; assay type: in vitro ADME; conditions: pH 7.4, Mean ± SEM, n = 3, read-out: Fu Plasma
Experimental: as §1

[3] = Protein binding assay (HT dialysis), human liver microsomes; assay type: in vitro ADME; conditions: pH 7.4, Human liver microsomes 0.5 mg/mL, Mean ± SEM, n = 3, read-out: Fu Microsomes (converted)
Experimental: as §1

[4] = Protein binding assay (HT dialysis), rat brain homogenate; assay type: in vitro ADME; conditions: pH 7.4, Mean ± SEM, n = 3, read-out: Fu Brain
Experimental: as §1

[5] = Protein binding assay (HT dialysis), rat liver microsomes; assay type: in vitro ADME; conditions: pH 7.4, Rat liver microsomes 0.5 mg/mL, Mean ± SEM, n = 3, read-out: Fu Microsomes
Experimental: as §1

[6] = Protein binding assay (HT dialysis), dog liver microsomes; assay type: in vitro ADME; conditions: pH 7.4, Dog liver microsomes 0.5 mg/mL, Mean ± SEM, n = 3, read-out: Fu Microsomes (converted)
Experimental: as §1

[7] = Protein binding assay (HT dialysis), human plasma; assay type: in vitro ADME; conditions: pH 7.4, Mean ± SEM, n = 3, read-out: Fu Plasma (converted)
Experimental: as §1

[8] = molecular target: T1, human Muscarinic M1 receptor (Homo sapiens, UniProt P11229); assay: Allosteric potency EC50 for muscarinic M1 receptor, CHO pCRE-Luc reporter cell assay; assay type: cell-based; conditions: in presence of EC20 of acetylcholine; CHO cells, luciferase reporter, 4 h
T1 sequence (P11229 1-460): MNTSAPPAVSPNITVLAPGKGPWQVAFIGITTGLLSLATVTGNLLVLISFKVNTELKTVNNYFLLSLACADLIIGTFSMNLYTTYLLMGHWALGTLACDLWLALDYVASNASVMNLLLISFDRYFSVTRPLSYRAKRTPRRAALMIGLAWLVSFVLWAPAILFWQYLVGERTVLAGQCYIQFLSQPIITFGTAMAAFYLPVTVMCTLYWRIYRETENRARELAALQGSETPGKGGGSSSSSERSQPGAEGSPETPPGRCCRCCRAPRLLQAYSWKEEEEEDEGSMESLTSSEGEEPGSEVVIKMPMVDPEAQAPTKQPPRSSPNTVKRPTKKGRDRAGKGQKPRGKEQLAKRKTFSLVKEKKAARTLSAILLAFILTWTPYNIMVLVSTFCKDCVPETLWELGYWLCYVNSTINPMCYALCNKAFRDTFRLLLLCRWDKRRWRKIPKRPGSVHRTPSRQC
Experimental: A stable CHO cell line expressing recombinant human Muscarinic M1 receptor and pCRE-Luc reporter system was used for cell-based assay. The assay offers a non-radioactive based approach to determine binding of a compound to GPCRs. In this specific assay, the level of intracellular cyclic AMP which is modulated by activation or inhibition of the receptor is measured. The recombinant cells harbor luciferase reporter gene under the control of cAMP response element.
The above cells were grown in 96 well clear bottom white plates in Hams F12 medium containing 10% fetal bovine serum (FBS). Prior to the addition of compounds or standard agonist, cells were serum starved overnight. Increasing concentrations of test compounds were added along with EC20 of acetylcholine in OptiMEM medium to the cells. The incubation was continued at 37° C. in CO2 incubator for 4 h. Medium was removed and cells were washed with phosphate buffered saline. The cells were lysed and luciferase activity was measured in a Luminometer. Luminescence units were plotted against the compound concentrations using Graphpad software. EC50 values of the compounds were defined as the concentration required in stimulating the luciferase activity by 50% in presence of EC20 of acetylcholine.

[9] = Rodent brain penetration study; assay type: in vivo, Male Wistar rats; conditions: male, Wistar, brain/plasma, po; rat, 3 mg/kg, p.o. @ 1.0 hr; read-out: Single dose Rat Brain Penetration (Cb/Cp)
Experimental: Male Wistar rats (260±40 grams) were used as experimental animals. Three animals were housed in each cage. Animals were given water and food ad libitum throughout the experiment and maintained on a 12 h light/dark cycle.
Brain penetration was determined in discrete manner in rats. One day prior to dosing day, male Wistar rats were acclimatized and randomly grouped according to their weight. At each time point (0.5, 1 and 2 h) n=3 animals were used.
The test compounds were suitably preformulated and administered orally at (free base equivalent) 3 mg/kg. Blood samples were removed via cardiac puncture by using isoflurane anesthesia. The animals were sacrificed to collect brain tissue. Plasma was separated and brain samples were homogenized and stored frozen at −20° C. until analysis. The concentrations of the test compounds in plasma and brain were determined using LC-MS/MS method.
The test compounds were quantified in plasma and brain homogenate by qualified LC-MS/MS method using suitable extraction technique. The test compounds were quantified in the calibration range of 1-500 ng/mL in plasma and brain homogenate. Study samples were analyzed using calibration samples in the batch and quality control samples spread across the batch.

[10] = Rodent pharmacokinetic study; assay type: in vivo, Male Wistar rats; conditions: rat
Experimental: Male Wistar rats (260±50 grams) were used as experimental animals. Animals were housed individually in polypropylene cage. Two days prior to study, male Wistar rats were anesthetized with isoflurane for surgical placement of jugular vein catheter. Rats were randomly divided for oral (3 mg/kg) and intravenous (i.v) (1 mg/kg) dosing (n=3/group) and fasted overnight before oral dosing (p.o.). However, rats allocated to intravenous (i.v.) dosing food and water was provided ad libitum.
At pre-determined point, blood was collected through jugular vein and replenished with an equivalent volume of normal saline. Collected blood was transferred into a labeled eppendorf tube containing 10 μL of heparin as an anticoagulant. Typically blood samples were collected at following time points: 0.08, 0.25, 0.5, 1, 2, 4, 6, 8, and 24 h post dose. Blood was centrifuged at 4000 rpm for 10 minutes. Plasma was separated and stored frozen at −80° C. until analysis. The concentrations of the test compounds were quantified in plasma by qualified LC-MS/MS method using suitable extraction technique. The test compounds were quantified in the calibration range around 1-1000 ng/mL in plasma. Study samples were analyzed using calibration samples in the batch and quality control samples spread across the batch.
Pharmacokinetic parameters Cmax, AUCt, T1/2, clearance and bioavailability (F) were calculated by non-compartmental model using standard non-compartmental model by using Phoenix WinNonlin 6.0.2 or 6.0.3 version Software package and the results are tabulated below.

[11] = male, Wistar, plasma, iv, i.v. 1 mg/kg
[12] = male, Wistar, plasma, oral 3 mg/kg

SMILES: COc1ccc(Cc2cc3c(cc2C)CN([C@H]2CCCC[C@@H]2O)C3=O)cc1 [Comparative compound, reference compound]
fraction unbound at 6 h, 1 μM [1]: 0.0069 | fraction unbound at 6 h, 1 μM [2]: 0.0141 ± 0.003 | fraction unbound at 6 h, 1 μM [3]: 0.48 | fraction unbound at 6 h, 1 μM [4]: 0.0022 ± 0.001 | fraction unbound at 6 h, 1 μM [5]: 0.551 ± 0.013 | fraction unbound at 6 h, 1 μM [6]: 0.709 | fraction unbound at 6 h, 1 μM [7]: 0.0063

SMILES: Cc1nc2c(cc1Cc1ccc(-c3cscn3)cc1)C(=O)N([C@H]1CCCC[C@@H]1O)C2 [Example 4, 6-(1S,2S-2-Hydroxycyclohexyl)-2-methyl-3-(4-thiazol-4-ylbenzyl)-6,7-dihydropyrrolo[3,4-b]pyridin-5-one]
EC50 [8]: 107 nM

SMILES: Cc1nc2c(cc1Cc1ccc(F)cc1)C(=O)N([C@H]1CCCC[C@@H]1O)C2 [Example 9, 6-(1S,2S-2-Hydroxycyclohexyl)-2-methyl-3-(4-fluorobenzyl)-6,7-dihydropyrrolo[3,4-b]pyridin-5-one]
Kp at 1 h [9]: 0.25 ± 0.04 | EC50 [8]: 1500 nM | AUC(0-t) [10, 11]: 1220 ± 25 ng·h/mL | clearance [10, 11]: 13.5 ± 0.3 mL/min/kg | half-life [10, 11]: 78 ± 18 min | AUC(0-t) [10, 12]: 1290 ± 387 ng·h/mL | Cmax [10, 12]: 592 ± 142 ng/mL | half-life [10, 12]: 66 ± 24 min | F ([10]; oral 3 mg/kg vs i.v. 1 mg/kg): 35 ± 11%

SMILES: COc1ccc(Cc2cc3c(nc2C)CN(C2COCCC2O)C3=O)cc1 (centres unmarked) [Example 13, 6-(4-Hydroxytetrahydropyran-3-yl)-3-(4-methoxybenzyl)-2-methyl-6,7-dihydropyrrolo[3,4-b]pyridin-5-one]
EC50 [8]: 669 nM

SMILES: COc1ccc(Cc2cc3c(nc2C)CCN([C@H]2CCCC[C@@H]2O)C3=O)cc1 [Example 14, 6-(1S,2S-2-Hydroxycyclohexyl)-2-methyl-3-(4-methoxybenzyl)-7,8-dihydro-6H-[1,6]naphthyridin-5-one]
EC50 [8]: 643 nM

SMILES: Cc1nc2c(cc1Cc1cccc(Cl)c1)C(=O)N([C@H]1CCCC[C@@H]1O)CC2 [Example 18, 6-(1S,2S-2-Hydroxycyclohexyl)-2-methyl-3-(3-chlorobenzyl)-7,8-dihydro-6H-[1,6]naphthyridin-5-one]
EC50 [8]: 774 nM

SMILES: Cc1nc2c(cc1Cc1ccc(F)c(F)c1)C(=O)N([C@H]1CCCC[C@@H]1O)CC2 [Example 19, 6-(1S,2S-2-Hydroxycyclohexyl)-2-methyl-3-(3,4-difluorobenzyl)-7,8-dihydro-6H-[1,6]naphthyridin-5-one]
EC50 [8]: 972 nM

SMILES: COc1cccc(Cc2cc3c(nc2C)CCN([C@H]2CCCC[C@@H]2O)C3=O)c1 [Example 24, 6-(1S,2S-2-Hydroxycyclohexyl)-2-methyl-3-(3-methoxybenzyl)-7,8-dihydro-6H-[1,6]naphthyridin-5-one]
EC50 [8]: 1210 nM

More lines, in order of falling EC50 [8], values ahead:

EC50 [8]: 2780 nM
SMILES: Cc1nc2c(cc1Cc1cccc(F)c1)C(=O)N([C@H]1CCCC[C@@H]1O)C2 [Example 10, 6-(1S,2S-2-Hydroxycyclohexyl)-2-methyl-3-(3-fluorobenzyl)-6,7-dihydropyrrolo[3,4-b]pyridin-5-one]

EC50 [8]: 1320 nM
SMILES: Cc1nc(-c2ccc(Cc3cc4c(nc3C)CN(C3CCOCC3)C4=O)cc2)co1 [Example 16, 6-(Tetrahydropyran-4-yl)-2-methyl-3-[4-(2-methyl-oxazol-4-yl)-benzyl]-6,7-dihydropyrrolo[3,4-b]pyridin-5-one]

EC50 [8]: 929 nM
SMILES: Cc1nc2c(cc1Cc1ccnc(F)c1)C(=O)N([C@H]1CCCC[C@@H]1O)C2 [Example 28, 6-(1S,2S-2-Hydroxycyclohexyl)-2-methyl-3-(2-fluoropyridin-4-ylmethyl)-6,7-dihydropyrrolo[3,4-b]pyridin-5-one]

EC50 [8]: 288 nM
SMILES: Cc1nc2c(cc1Cc1ccc(-c3cnn(C)c3)nc1)C(=O)N([C@H]1CCCC[C@@H]1O)C2 [Example 2, 6-(1S,2S-2-Hydroxycyclohexyl)-2-methyl-3-[2-(1-methyl-1H-pyrazol-4-yl)pyridin-5-ylmethyl]-6,7-dihydropyrrolo[3,4-b]pyridin-5-one]
